These results are taken from patent publication EP3974434B1, “MACROLIDE DERIVATIVES, PREPARATION METHOD AND APPLICATION THEREOF” (Zhejiang Hisun Pharmaceutical Co., Ltd., priority 2019, dated 2020).

This assay relates to H2228 (human lung cancer cells). Kind of assay: Cell proliferation assay (CellTiter-Glo), H2228. In kind it is cell-based. To be noted: NCI-H2228, 72 hours, EML4-ALK fusion. The source says: The following method was used to determine the effects of the compounds of the present invention on cell proliferation. H2228 cells (containing EML4-ALK fusion) were purchased from Cell Resource Center of Shanghai Institutes for Biological Sciences, Chinese Academy of Sciences. KARPAS-299 cells (containing NPM-ALK fusion) were purchased from Nanjing COBIOER Biotechnology Co., Ltd. The above two cell lines were used to determine the inhibition of the compounds on cell activities. The cells were cultured in an RPMI 1640 medium containing 10% fetal bovine serum, 100 U penicillin, 100 µg/mL streptomycin, and 1 mM Sodium Pyruvate. The cells were cultured in a 5% CO2 incubator at 37°C. The activity of the cells was determined by CellTiter-Glo® Luminescent Cell Viability Assay kit (Promega, article number: G7573).
The experimental methods were operated according to the steps in the kit instruction, and were briefly described as follows: a test compound was first dissolved in DMSO to prepare a storage solution, and then diluted in gradient with the corresponding cell culture medium to prepare a test sample. […] After the culture, 50 µL of CellTiter-Glo detection solution was added to each well, shaken for 5 minutes, and then stood for 10 minutes, and the luminescence values of each well were read on the microplate reader using a Luminance mode. […]

A word on the IC50: it is the concentration needed to halve the response being measured. Read a high IC50 as a need for much substance. Compound `C[C@H]1Nc2ccn3ncc(c3n2)C(=O)NC[C@@]2(C)Cc3cc(F)cc1c3O2` [Example 8, (3R,11R)-6-fluoro-3,11-dimethyl-10-oxa-2,13,17,1 8,21-pentaazapentacyclo[13.5.2.1^8,11.0^4,9.0^18,22]tric osa-1(21),4,6,8,15(22),16,19-heptaen-14-one] gave an IC50 of 164 nM.
